# Measurements from patent US6124324A, “Thiophene-ethyl thiourea compounds and use” (Hughes Institute, priority 1999, dated 2000).
# Read-outs that look alike come from different tables or passages of the source.
# How the values were obtained:
# [1] = Microculture Tetrazolium Assay (MTA), cytotoxicity; format: cell-based; details: XTT cytotoxicity; read-out: CC50 MTA
# Experimental: A Microculture Tetrazolium Assay (MTA), using 2,3-bis(2-methoxy-4-nitro-5-sulfophenyl)-5-[(phenylamino)-carbonyl]-2H-tetrazolium hydroxide (XTT), was performed to evaluate the cytotoxicity of the compounds, using the methods described, for example, in Uckun et.al., 1998, Antimicrobial Agents and Chemotherapy 42:383; and Mao et.al., 1998, Bioorg. Med. Chem. Lett. 8:2213.
# HIV-1 strain A17 (Y181C) = assay: microbe, parasite or virus in culture; format: cell-based; details: read-out: IC50 A17 (Y181C)
# Experimental: (§1) In addition, the anti-HIV activity of the compounds was measured by determining their ability to inhibit the replication of the HIV-1 strains HTLVIIIB, RT-MDR, A17, and A17 variant in peripheral blood mononuclear cells (PBMC) from healthy volunteer donors, using the method described in Uckun et.al., 1998, Antimicrobial Agents and Chemotherapy 42:383.
# (§2) Normal human peripheral blood mononuclear cells (PBMNC) from HIV-negative donors were cultured 72 hours in RPMI 1640 supplemented with 20% (v/v) heat-inactivated fetal bovine serum (FBS), 3% interleukin-2,2 mM L-glutairine, 25 mM HEPES, 2 μL, NAHCO, […] gentamicin, and 4 Ag/mL phytohemagglutinin prior to exposure to HIV-1 or other HIV strain. The cells were then infected with virus at a multiplicity of infection (MOI) of 0.1 during a one-hour adsorption period at 37° C. in a humidified 5% CO2 atmosphere. Subsequently, cells were cultured in 96-well microplates (100 μL/well; 2×10^6 cells/mL, triplicate wells) in the presence of various inhibitor concentrations. Aliquots of culture supernatants were removed from the wells on the 7 th day after infection for p24 antigen p24 enzyme immunoassays (EIA), as previously described in Erice et al., 1993, Antimicrob. Ag. Chemotherapy 37:385-838. The applied p24 EIA was the unmodified kinetic assay commercially available from Coulter Corporation/Immunotech, Inc. (Westbrook, Me.).
# (§3) Percent inhibition of viral replication was calculated by comparing the p24 values from the test substance-treated infected cells with p24 values from untreated infected cells (i.e, virus controls). […]
# [2] = biological target: T1, purified recombinant HIV RT (Human immunodeficiency virus type 1 group M subtype B, UniProt P04585); assay: Purified RT assay, cell-free Quan-T-RT system (scintillation proximity); format: biochemical; details: recombinant HIV RT; for IC50: IC50 rRT; for IC90: read-out: IC90 rRT
# T1 construct: purified recombinant HIV RT; purchased Amersham, Arlington Heights, Ill; (Quan-T-RT system)
# Experimental: The synthesized compounds were tested for RT inhibitory activity (IC50 [rRT]) against purified recombinant HIV RT using the cell-free Quan-T-RT system (Amersham, Arlington Heights, Ill.), which utilizes the scintillation proximity assay principle as decribed in Bosworth, et al., 1989, Nature 341:167-168. In the assay, a DNA/RNA template is bound to SPA beads via a biotin/strepavidin linkage. The primer DNA is a 16-mer oligo(T) which has been annealed to a poly(A) template. The primer/template is bound to a strepavidin-coated SPA bead.
# ^3 H-TTP is incorporated into the primer by reverse transcription. In brief, ^3 H-TTP, at a final concentration of 0.5 μCi/sample, was diluted in RT assay buffer (49.5 mM Tris-Cl, pH 8.0, 80 mM KCl, 10 Mm MgCl2, 10 mM DTT, 2.5 mM EGTA, 0.05% Nonidet-P-40), and added to annealed DNA/RNA bound to SPA beads. The compound being tested was added to the reaction mixture at 0.001 μM-100 μM concentrations. […] The reaction was stopped by addition of 0.2 ml of 120 mM EDTA. The samples were counted in an open window using a Beckman LS 7600 instrument and IC50 values were calculated by comparing the measurements to untreated samples.
# [3] = test system: HIV-1 strain RT-MDR (V106A); assay: microbe, parasite or virus in culture; format: cell-based; details: read-out: IC50 RT-MDR (V106A)
# Experimental: as §1, §2
# (§4) Percent inhibition of viral replication was calculated by comparing the p24 values from the test substance-treated infected cells with p24 values from untreated infected cells (i.e, virus controls).
# (§5) RT-MDR was obtained through the AIDS Research and Reference Reagent Program, from Dr. Bendan Larder, and is described in Larder et al., 1993, Nature, 365, 451-453.
# [4] = test system: HIV-1 strain A17 variant (Y181C, K103N); assay: microbe, parasite or virus in culture; format: cell-based; details: read-out: IC50 A17 Varient (Y181C, K103N)
# Experimental: as §1, §2, §4, §5
# HIV-1 strain HTLVIIIB [5] = assay: Inhibition of replication of HIV-1 strain HTLVIIIB in PBMC (p24 antigen EIA); format: cell-based; details: Human immunodeficiency virus 1, IIIB; inhibition of p24 antigen production in PBMC; read-out: IC50 HTLV IIIB
# Experimental: as §1, §2, §3
# HIV-1 strain HTLVIIIB [6] = details: earlier publication (Mao et al.), cited from earlier work; for antiviral potency relative to trovirdine: HTLVIIIB; for abrogated the replication of HTLVIIIB: human PBMC
# [7] = test system: NNI-resistant HIV-1 strains; details: earlier publication (Mao et al., 1999); cited from earlier work
# [8] = inhibition of p24 antigen production in PBMC
# [9] = Human immunodeficiency virus 1, PBMC
compound,measurement,setting,value
"Cc1cn([C@H]2C[C@H](N=[N+]=[N-])[C@@H](CO)O2)c(=O)[nH]c1=O [AZT, reference compound]",CC50,[1],> 100000 nM
same,IC50,HIV-1 strain A17 (Y181C); [8],6 nM
same,IC50,[2]; Table 2,> 100000 nM
same,IC50,[3]; [8],200 nM
same,IC50,[4]; [8],4 nM
"CC(C)Nc1cccnc1N1CCN(C(=O)c2cc3cc(NS(C)(=O)=O)ccc3[nH]2)CC1 [Delavirdine, reference compound]",IC50,HIV-1 strain HTLVIIIB [5],9 nM
same,IC50,HIV-1 strain A17 (Y181C); [9],50000 nM
same,IC50,[3]; [9],400 nM
same,IC50,[4]; [9],> 100000 nM
"S=C(NCCN1CCCCC1)Nc1ccc(Br)cn1 [HI-172, N-[2-(1-piperidinoethyl)]-N'-[2-(5-bromopyridyl)]thiourea]",antiviral potency relative to trovirdine,HIV-1 strain HTLVIIIB [6],more potent than trovirdine
same,abrogated the replication of HTLVIIIB,HIV-1 strain HTLVIIIB [6],nanomolar concentrations
same,IC50,HIV-1 strain HTLVIIIB [5],< 1 nM
same,CC50,[1],> 100000 nM
same,IC50,HIV-1 strain A17 (Y181C); [9],> 100000 nM
same,inhibition of replication of NNI-resistant HIV-1 strains,[7],neither compound inhibited the replication
same,IC50,[2]; Table 2,600 nM
same,IC50,[3]; [9],> 100000 nM
same,IC50,[4]; [9],> 100000 nM
"CN1CCCC1CCNC(=S)Nc1ccc(Br)cn1 (centres unmarked) [HI-206, N-[2-(1-methyl-2-pyrrolidinylethyl)]-N'-[2-(5 bromopyridyl)]thiourea]",IC50,[2]; Table 1 and text,> 100000 nM
same,IC90,[2]; Table 1 and text,> 100000 nM
"S=C(NCCN1CCCC1)Nc1ccc(Br)cn1 [HI-230, N-[2-(1-pyrolidylethyl)]-N'-[2-(5-bromopyridyl)]thiourea]",IC50,[2]; Table 1 and text,4900 nM
same,IC90,[2]; Table 1 and text,> 100000 nM
"Fc1ccccc1CCNC(=S)Nc1ccc(Br)cn1 [HI-240, N-[2-(2-fluorophenethyl)]-N'-[2-(5-bromopyridyl)]thiourea]",IC50,HIV-1 strain HTLVIIIB [5],< 1 nM
same,CC50,[1],> 100000 nM
same,IC50,HIV-1 strain A17 (Y181C); [9],200 nM
same,IC50,[3]; [9],5 nM
same,IC50,[4]; [9],41000 nM
"S=C(NCc1ccc2c(c1)OCO2)Nc1ccc(Br)cn1 [HI-257, N-[2-(1-piperonyl)]-N'-[2-(5-bromopyridyl)]thiourea]",IC50,[2]; Table 1 and text,700 nM
same,IC90,[2]; Table 1 and text,> 100000 nM
"S=C(NCCN1CCNCC1)Nc1ccc(Br)cn1 [HI-258, N-[2-(1-piperizinylethyl)]-N'-[2-(5-bromopyridyl)]thiourea]",antiviral potency relative to trovirdine,HIV-1 strain HTLVIIIB [6],more potent than trovirdine
same,abrogated the replication of HTLVIIIB,HIV-1 strain HTLVIIIB [6],nanomolar concentrations
same,inhibition of replication of NNI-resistant HIV-1 strains,[7],neither compound inhibited the replication
